Test results reported in patent US8722376B2, “Firefly luciferase” (Olympus Corporation, priority 2011, dated 2014).
Read-outs that look alike come from different tables or passages of the source.

Legend:
[1] = tested on: CBR (luciferase derived from known click beetles); assay: Km of CBR luciferase (luminescence kinetic analysis); format: biochemical, click beetle; conditions: 0.1 M Tris-HCl (pH 8.0), MgSO4, measured in a similar manner
Procedure: (§1) A solution of 0.1 M Tris-HCl (pH 8.0) containing each of the purified luciferase, 4 mM of ATP, and 8 mM of MgSO4 was connected to the standard pump of the luminometer, and the measurements was carried out at the same time as addition of 50 μl of the solution to the well. A Luminescensor (ATTO) was used for the measurements. Measurements were repeated 3 times for each luciferin concentration.
(§2) The peak intensity of the obtained photo count value was plotted with respect to luciferin concentration S, defining the initial rate as V. The plots were subjected to curve fitting of Michaelis Menten type, thereby giving Km values. The curve fitting was performed by a nonlinear least-squares method, and the search of the parameter was performed by a Newton method.
(§3) 4-3. Measurement of Km Value with Respect to ATP
(§4) Under various ATP concentrations, the luminescent intensity of the obtained luciferase was measured. Based on the results, Km values with respect to ATP was determined.
(§5) Various […] types of ATP solutions were prepared by adding ATP to 0.1 M Tris-HCl (pH 8.0). These solutions contain ATP at final concentration of 5, 10, 20, 40, 80, 160, 320, 480, 640, 800, 1280, 1600, or 1920 μM. These ATP solutions were each injected into 96-hole in a microplate at a volume of 50 μl. […]
(§6) Table 1 also indicates Km values for known firefly luciferases, measured in a similar manner. […]

[2] = tested on: CBG (luciferase derived from known click beetles); assay: Km of CBG luciferase (luminescence kinetic analysis); format: biochemical, click beetle; conditions: 0.1 M Tris-HCl (pH 8.0), MgSO4, measured in a similar manner
Procedure: as §1, §2, §3, §4, §5, §6

[3] = tested on: SP1 luciferase, Luciola sp1 (Malaysian firefly, genus Luciola), wild type, SEQ ID NO: 1; assay: Km of SP1 luciferase (luminescence kinetic analysis); format: biochemical; conditions: for Km: 0.1 M Tris-HCl (pH 8.0), MgSO4, Michaelis Menten curve fitting; for Km values with respect to ATP and D-luciferin, compared with known luciferases: FIG. 2, SP1 luciferase versus known luciferases
Procedure: The measurements were carried out ten times for each sample, and the average of absorbency was used for the calculation.
Various 12 types of ATP solutions were prepared by adding ATP to 0.1 M Tris-HCl (pH 8.0). These solutions contain ATP at final concentration of 5, 10, 20, 40, 80, 160, 320, 480, 640, 800, 1280, 1600, or 1920 μM. These ATP solutions were each injected into 96-hole in a microplate at a volume of 50 μl. […] Measurement was repeated 3 times for each ATP concentration.
The peak intensities of the obtained photon count value were plotted with respect to ATP concentration S, with an initial rate V. The plots were subjected to curve fitting of Michaelis Menten type, thereby giving Km value. The curve fitting was performed by a nonlinear least-squares method, and the search of the parameter was performed by a Newton method.

[4] = tested on: ELuc (luciferase derived from known click beetles); assay: Km of ELuc luciferase (luminescence kinetic analysis); format: biochemical, click beetle; conditions: 0.1 M Tris-HCl (pH 8.0), MgSO4, measured in a similar manner
Procedure: as §1, §2, §3, §4, §5, §6

[5] = Measurement of luminescent intensity of purified luciferase compared with Rhodamine 6G and P. pyralis luciferase; format: biochemical; conditions: purified enzymes, integration of light 300 nm to 650 nm for 10 seconds
Procedure: Rhodamine 6G was dissolved into 0.1 M citric acid/0.2 M Na2HPO4 (pH 4.0) solution. The Rhodamine 6G solution was centrifuged for 1 minute at 15,000 rpm, and the supernatant was collected. The collected supernatant is diluted with 0.1 M citric acid/0.2 M Na2HPO4 solution 1000 fold, and the absorbance thereof was measured. Measurement was carried out by NanoVue (GE Healthcare). The measurement at 530 nm was repeated 5 times, and the average absorbance 0.048 was obtained. The concentration of the original Rhodamine 6G solution was calculated by using ε value of Rhodamine (1.16×10^5 mol^−1cm^−1), and the value 414 μM was obtained. The solution was diluted with 0.1 M citric acid/0.2 M Na2HPO4 solution (pH 4.0) to prepare 30 μM of a diluted solution.
Solution 1 having the following composition was prepared with use of the diluted solution.
Solution 2 was prepared by dissolving bis (2,4,6-trichlorophenyl)oxlate (TCPO) so that the final concentration thereof is 3 mM.
100 μl of solution 1 was injected for each well of 96-hole microplate. Measurement was started at the same time as addition of 50 μl of solution 2 with use of a pump, and integration value of photon counts for 10 seconds from addition of solution 2 was obtained. […]
A concentration of the obtained sample was measured by a colorimetric method, and the concentrations of P. pyralsis luciferase and SP1 luciferase were confirmed. […]

HeLa cells = assay: Luminescence activity of SP1 mutants expressed in HeLa cells, corrected by hRluc internal standard; format: cell-based; conditions: 90 minutes after D-luciferin addition, corrected by hRluc luminescence at 10 minutes
Excerpt: The fragment of the nucleic acid having the base sequence of SEQ ID NO: 35 was inserted into between SgfI site and PmeI site of a pF9A CMV hRluc-neo FlexiR vector (Promega). The fragment of the nucleic acid having the base sequence of SEQ ID NO: 36 was inserted into between SgfI site and PmeI site of another pF9A CMV hRluc-neo FlexiR vector. Two types of the obtained expression vectors were each introduced into HeLa cells, and mutants were expressed.
The luminescence intensity of two types of cells expressing mutants was detected by using a cell expressing the original SP1 luciferase without mutations as a comparison. Here, the luminescence intensity of each Hela cell was corrected using the luminescence based on hRluc gene of pF9A CMV hRluc-neo FlexiR vector (Promega) as an internal standard.

HeLa cell = assay: Luminescent intensity of SP1 luciferase expressed in a mammal cell; format: cell-based; conditions: expression in HeLa cell, 1 mM D-luciferin, integration for 10 seconds
Procedure: SP1 luciferase was expressed in a HeLa cell, and the luminescent intensity in a cell was measured.
For introduction of SP1 luciferase gene, four types of expression vectors were prepared. Nucleic acids each containing a gene prepared by deleting recognition sequences of BamHI and EcoRI from the original SP1 luciferase gene obtained from Luciola sp1 (SEQ ID NO: 3), a gene further optimized for expression in a mammal cell (SEQ ID NO: 4), and two types of genes to which Kozak sequence was further added (SEQ ID NOS: 29 and 30) were each inserted into the multi-cloning site between BamHI and EcoRI of pcDNA3.1(+) vector (Invitrogen). Further, for comparison, a nucleic acid containing a known P. pyralis luciferase gene optimized for expression in a mammal cell was inserted into pcDNA3.1(+) vector similarly.
Five types of plasmids obtained in such a manner described above were each subjected to gene transfection to a HeLa cell by a lipofection method, and D-MEM culture medium was exchanged after 24 hours. […] The luminescent intensities shown in FIG. 4 are integration values for 10 seconds.

[6] = D-luciferin, read-out: Km for ATP
[7] = read-out: Km for D-luciferin, ATP

With `Nc1ncnc2c1ncn2[C@@H]1O[C@H](COP(=O)(O)OP(=O)(O)OP(=O)(O)O)[C@@H](O)[C@H]1O` [ATP] the Km [1, 6] was 47.1 µM, the Km [2, 6] was 58.4 µM and the Km [3, 6] was 195 µM. The “Km values with respect to ATP and D-luciferin, compared with known luciferases” value [3] was “higher Km values” and the Km [4, 6] was 182 µM.

With `O=C(O)[C@H]1CSC(c2nc3ccc(O)cc3s2)=N1` [D-luciferin] the Km [1, 7] was 33.3 µM, the Km [2, 7] was 1.44 µM and the “Km values with respect to ATP and D-luciferin, compared with known luciferases” value [3] was “higher Km values”. It also gave a Km [3, 7] of 44.6 µM and a Km [4, 7] of 12.7 µM.

B1: SP1 luciferase: luciferase of SEQ ID NO: 1 derived from Malaysian firefly Luciola sp1 (protein, listed as Luciola sp.)
chain: MNNMDDGEHIVVGPQPFYPVEEGSAGTQLLKYLKQYSKLGAIAFSNAHTKVDISYAEYLDTSVRLAQALINYGIPIDGRIALCSENCEEFYFPVLAGLYIGAGVAPTNEIYTLRELVHSLGISKPTIVFSSKKGLEKVITVQKTVTCIKTIVILDSKVDYQGYDCLETFIKKYLPAGFSVENFIPREVNRKEQVALVMNSSGSTGLPKGVQITHEGAVTRFSHARDPIYGNQVSPGTAILTIVPFHHGFGMFTNLGYLTCGYRIVMLTKFDEELFLKTLADYKCTSVILVPTLFAILSKSVLLEKYDLSNLVEIASGGAPLAKEVGEAVARRFNLPGIRQGYGLTETTSAIIITPEGDDKPGASGKIVPLFRAKVVDLDTQKTLGPNRRGEICVKGPMLMKGYVDDPVATSQIIDKDGWLHTGDIGYFDEDKHFFIVDRLKSLIKYKGYQVPPAELESVLLQHPDIFDAGVAGLPDPLAGELPGAVVVLEKGRHMTEQQVMDYVAGQVSNAKRLRGGVRFVDEVPKGLTGKIDSKAIREILKSPKAKM
For B1, the “luminescent intensity in comparison to that of P. pyralis luciferase” value [5] was 4.9 times.

B2: SP1 mutant 1: SP1 luciferase with mutations D438G, I532R and E356R; amino acid sequence SEQ ID NO: 37 (protein)
chain: MNNMDDGEHIVVGPQPFYPVEEGSAGTQLLKYLKQYSKLGAIAFSNAHTKVDISYAEYLDTSVRLAQALINYGIPIDGRIALCSENCEEFYFPVLAGLYIGAGVAPTNEIYTLRELVHSLGISKPTIVFSSKKGLEKVITVQKTVTCIKTIVILDSKVDYQGYDCLETFIKKYLPAGFSVENFIPREVNRKEQVALVMNSSGSTGLPKGVQITHEGAVTRFSHARDPIYGNQVSPGTAILTIVPFHHGFGMFTNLGYLTCGYRIVMLTKFDEELFLKTLADYKCTSVILVPTLFAILSKSVLLEKYDLSNLVEIASGGAPLAKEVGEAVARRFNLPGIRQGYGLTETTSAIIITPRGDDKPGASGKIVPLFRAKVVDLDTQKTLGPNRRGEICVKGPMLMKGYVDDPVATSQIIDKDGWLHTGDIGYFDEDKHFFIVGRLKSLIKYKGYQVPPAELESVLLQHPDIFDAGVAGLPDPLAGELPGAVVVLEKGRHMTEQQVMDYVAGQVSNAKRLRGGVRFVDEVPKGLTGKRDSKAIREILKSPKAKM
modifications: Luciola sp. mutant 1
In the case of B2, the “luminescence intensity in comparison to the original SP1” value (HeLa cells) is reported as “increased”.

B3: SP1 luciferase codon optimized: SP1 luciferase expressed from gene optimized for expression in a mammal cell (SEQ ID NO: 4) (protein, listed as Luciola sp.)
chain: MNNMDDGEHIVVGPQPFYPVEEGSAGTQLLKYLKQYSKLGAIAFSNAHTKVDISYAEYLDTSVRLAQALINYGIPIDGRIALCSENCEEFYFPVLAGLYIGAGVAPTNEIYTLRELVHSLGISKPTIVFSSKKGLEKVITVQKTVTCIKTIVILDSKVDYQGYDCLETFIKKYLPAGFSVENFIPREVNRKEQVALVMNSSGSTGLPKGVQITHEGAVTRFSHARDPIYGNQVSPGTAILTIVPFHHGFGMFTNLGYLTCGYRIVMLTKFDEELFLKTLADYKCTSVILVPTLFAILSKSVLLEKYDLSNLVEIASGGAPLAKEVGEAVARRFNLPGIRQGYGLTETTSAIIITPEGDDKPGASGKIVPLFRAKVVDLDTQKTLGPNRRGEICVKGPMLMKGYVDDPVATSQIIDKDGWLHTGDIGYFDEDKHFFIVDRLKSLIKYKGYQVPPAELESVLLQHPDIFDAGVAGLPDPLAGELPGAVVVLEKGRHMTEQQVMDYVAGQVSNAKRLRGGVRFVDEVPKGLTGKIDSKAIREILKSPKAKM
With B3 the “increase of luminescent intensity in comparison to SP1 luciferase without codon optimization” value (HeLa cell) was 16.2 times and the “luminescent intensity in comparison to that of P. pyralis luciferase after codon optimization” value (HeLa cell) was 1.7 times.

B4: SP1 mutant 2: SP1 luciferase with mutations E356R and V368A; amino acid sequence SEQ ID NO: 38 (protein)
chain: MNNMDDGEHIVVGPQPFYPVEEGSAGTQLLKYLKQYSKLGAIAFSNAHTKVDISYAEYLDTSVRLAQALINYGIPIDGRIALCSENCEEFYFPVLAGLYIGAGVAPTNEIYTLRELVHSLGISKPTIVFSSKKGLEKVITVQKTVTCIKTIVILDSKVDYQGYDCLETFIKKYLPAGFSVENFIPREVNRKEQVALVMNSSGSTGLPKGVQITHEGAVTRFSHARDPIYGNQVSPGTAILTIVPFHHGFGMFTNLGYLTCGYRIVMLTKFDEELFLKTLADYKCTSVILVPTLFAILSKSVLLEKYDLSNLVEIASGGAPLAKEVGEAVARRFNLPGIRQGYGLTETTSAIIITPRGDDKPGASGKIAPLFRAKVVDLDTQKTLGPNRRGEICVKGPMLMKGYVDDPVATSQIIDKDGWLHTGDIGYFDEDKHFFIVDRLKSLIKYKGYQVPPAELESVLLQHPDIFDAGVAGLPDPLAGELPGAVVVLEKGRHMTEQQVMDYVAGQVSNAKRLRGGVRFVDEVPKGLTGKIDSKAIREILKSPKAKM
modifications: Luciola sp. mutant 2
For B4, the “luminescence intensity in comparison to the original SP1” value (HeLa cells) was “increased”.
